Entries after “also recorded” stand apart in the source; their conditions may differ. Structures can show the parent of a compound that is named as a salt. Where two headings read alike, the source gives them in different places.
Assays:
[1] = system: Trimethylglycine:Trifluoroacetamide fixed mouse liver single-cells; assay: Lysis of fixed cells by solvents and aqueous solutions; type: cell-based; details: for Cell lysis effect (4 day treatment): nuclei: whether nuclei are lysed
Excerpt: (§1) This is important for example if studying the RNA component of the cytoplasm, nuclei or the entire cell contents as a selection of the source of the RNA can be made based on the solvent used.

[2] = system: DES fixed cell cytoplasm and nuclei; assay: Solubilisation of cytoplasm versus nuclei of DES fixed cells; type: cell-based; details: DMSO at 25% or more final concentration
Excerpt: as §1
Such intact nuclei can be sorted, pelleted selected, and their contents analysed either in entire nuclei by using, for example, labeled antibodies specific to nuclear epitopes such as Ki-67 or, by using fluorescent nucleic acid probes for detecting RNA and DNA. Alternatively the purified nuclei can be lysed and their contents including proteins, DNA and RNA released for further analysis such as genomic DNA sequencing, protein-protein interactions, intron splicing, CHIP analysis, chromosome analysis and/or RNA sequencing.

[3] = organic solvents in the range of 80-100% final concentration
[4] = 500 fixed, dissociated mouse liver cells per well, bromophenol blue stained, 4 day treatment

Compound	Cell lysis effect (4 day treatment) [1, 4]	other results
OC(c1ccccc1)(C(F)(F)F)C(F)(F)F [1,1,1,3,3,3-Hexafluoro-2-phenyl-2-propanol]		lysing of Trimethylglycine:Trifluoroacetamide (1:2 mol:mol) fixed samples [1, 3]: particularly effective at effectuating cell lysis
N#CS.N=C(N)N [4M Guanidine thiocyanate, Guanidine thiocyanate]		Cell lysis effect (4 day treatment) [1]: >50% cell lysis
N=C(N)N [5M Guanidine HCl, Guanidine HCl]	>50% cell lysis	
Tween-20 [1% Tween-20]	>60% cell lysis	
OCC(O)CO [100% Glycerol, Glycerol]	No lysis	
IGEPAL-CA630 [50% IGEPAL-CA630]	100% cell lysis	Cell lysis effect (4 day treatment) ([1]; 500 fixed, dissociated mouse liver cells per well, bromophenol blue stained, 4 day treatment, listed as 10% IGEPAL-CA630): No lysis; Cell lysis effect (4 day treatment) ([1]; 500 fixed, dissociated mouse liver cells per well, bromophenol blue stained, 4 day treatment, listed as 30% IGEPAL-CA630): No lysis
NP40 [1% NP40]	>50% cell lysis	
CCN1CCCC1=O [100% N-ethyl pyrrolidone, N-ethyl pyrrolidone]	No lysis	
CN1CCCC1=O [50% N-methyl pyrrolidone, N-methyl pyrrolidone]	No lysis	
Oc1ccccc1 [phenol]		lysing of Trimethylglycine:Trifluoroacetamide (1:2 mol:mol) fixed samples [1]: particularly effective at effectuating cell lysis
NC(N)=S [Saturated Thiourea, Thiourea]	100% cell lysis	
Triton X100 [1% Triton X100]	>60% cell lysis	
O=CN1CCOCC1 [100% Formyl morpholine, Formyl morpholine]	No lysis	
NC(=O)C(F)(F)F [Saturated Trifluoroacteamide, Trifluoroacteamide]	No lysis	
[I-].[K+] [5M Potassium iodide, Potassium iodide]	>50% cell lysis	Cell lysis effect (4 day treatment) ([1]; 500 fixed, dissociated mouse liver cells per well, bromophenol blue stained, 4 day treatment, listed as 1M Potassium iodide): No lysis; lysing of Trimethylglycine:Trifluoroacetamide (1:2 mol:mol) fixed samples [1, 3]: efficient at lysing
CCN(CC)C(=O)C(F)(F)F [N,N-Diethyl-2,2,2-Trifluoroacetamide]	No lysis	
CC(C)=O [100% Acetone, Acetone]	No lysis	
NC(=O)C(F)(F)C(F)F [Saturated Tetrafluoropropionamide, Tetrafluoropropionamide]	No lysis	
CCn1ccnc1 [100% 1-Ethylimidazole, 1-Ethylimidazole]	No lysis	

Compound	Cell lysis effect (4 day treatment) [1, 4]	other results
CCCCCCCCCCCCOS(=O)(=O)[O-].[Na+] [2% SDS, Sodium dodecyl sulphate]		Cell lysis effect (4 day treatment) ([1]; 500 fixed, dissociated mouse liver cells per well, bromophenol blue stained, 4 day treatment, listed as 0.1% SDS, sulphate): >15% cell lysis; Cell lysis effect (4 day treatment) ([1]; 500 fixed, dissociated mouse liver cells per well, bromophenol blue stained, 4 day treatment, sulphate): Complete Lysis
CC(O)(C(F)(F)F)C(F)(F)F [1,1,1,3,3,3-Hexafluoro-2-methyl-2-propanol]		lysing of Trimethylglycine:Trifluoroacetamide (1:2 mol:mol) fixed samples [1, 3]: particularly effective at effectuating cell lysis
OCCS [100% Beta-mercaptoethanol, Beta-mercaptoethanol]	100% cell lysis	Cell lysis effect (4 day treatment) ([1]; 500 fixed, dissociated mouse liver cells per well, bromophenol blue stained, 4 day treatment, listed as 10% Beta-mercaptoethanol): No lysis; Cell lysis effect (4 day treatment) ([1]; 500 fixed, dissociated mouse liver cells per well, bromophenol blue stained, 4 day treatment, listed as 20% Beta-mercaptoethanol): No lysis; Cell lysis effect (4 day treatment) ([1]; 500 fixed, dissociated mouse liver cells per well, bromophenol blue stained, 4 day treatment, listed as 40% Beta-mercaptoethanol): No lysis; Cell lysis effect (4 day treatment) ([1]; 500 fixed, dissociated mouse liver cells per well, bromophenol blue stained, 4 day treatment, listed as 60% Beta-mercaptoethanol): >50% cell lysis; Cell lysis effect (4 day treatment) ([1]; 500 fixed, dissociated mouse liver cells per well, bromophenol blue stained, 4 day treatment, listed as 80% Beta-mercaptoethanol): >80% cell lysis; lysing of Trimethylglycine:Trifluoroacetamide (1:2 mol:mol) fixed samples [1, 3]: particularly effective at effectuating cell lysis
[O-][Cl+3]([O-])([O-])O [5M Sodium perchlorate, Sodium perchlorate]	100% cell lysis	lysing of Trimethylglycine:Trifluoroacetamide (1:2 mol:mol) fixed samples [1, 3]: efficient at lysing
10 mg/ml BSA (acetylated): BSA (acetylated)	No lysis	
C[S+](C)[O-] [100% DMSO, Dimethylsulphoxide]	>70% cell lysis	lysing of Trimethylglycine:Trifluoroacetamide (1:2 mol:mol) fixed samples [1, 3]: particularly effective at effectuating cell lysis; solubilisation of fixed cell cytoplasm and nuclei [2]: very efficiently solubilises the Trimethylglycine:Trifluoroacetamide fixed cell's cytoplasm but not the nuclei; also recorded: particularly efficient at the solubilization and removal of the cell membrane and cytoplasm but not the nucleus
NC(N)=O [8M Urea, Urea]	> 95%	Cell lysis effect (4 day treatment): nuclei ([1]; 4 day treatment): not nuclei
C[C@H](CCC(=O)NCCC[N+](C)(C)CCCS(=O)(=O)[O-])[C@H]1CC[C@H]2[C@@H]3[C@H](O)C[C@@H]4C[C@H](O)CC[C@]4(C)[C@H]3C[C@H](O)[C@]12C [1% CHAPS, CHAPS]	>80% cell lysis	
CN(C)C(=O)C(F)(F)F [N,N-Methyl-2,2,2-Trifluoroacetamide]	No lysis	
[Cl-].[Li+] [1M LiCl, LiCl]	No lysis	
Cn1ccnc1 [100% 1-Methylimidazole, 1-Methylimidazole]	No lysis	
Tetramethyl ammonium oxide [50% Tetramethyl ammonium oxide]	100% cell lysis	
C[N+](C)(C)C.[Cl-] [5M Tetramethyl ammonium chloride, Tetramethyl ammonium chloride]		Cell lysis effect (4 day treatment) [1]: No lysis
PEG200 [100% PEG200]	No lysis	
OC(C(F)(F)F)C(F)(F)F [100% 1,1,1,3,3,3-Hexafluoro-2-propanol, 1,1,1,3,3,3-Hexafluoro-2-propanol]	Complete lysis	Cell lysis effect (4 day treatment) ([1]; 500 fixed, dissociated mouse liver cells per well, bromophenol blue stained, 4 day treatment, listed as 10% 1,1,1,3,3,3-Hexafluoro-2-propanol): No lysis; Cell lysis effect (4 day treatment) ([1]; 500 fixed, dissociated mouse liver cells per well, bromophenol blue stained, 4 day treatment, listed as 50% 1,1,1,3,3,3-Hexafluoro-2-propanol): >40% cell lysis; Cell lysis effect (4 day treatment) ([1]; 500 fixed, dissociated mouse liver cells per well, bromophenol blue stained, 4 day treatment, listed as 90% 1,1,1,3,3,3-Hexafluoro-2-propanol): Complete lysis; lysing of Trimethylglycine:Trifluoroacetamide (1:2 mol:mol) fixed samples [1, 3]: particularly effective at effectuating cell lysis; Cell lysis effect (4 day treatment): nuclei ([1]; 4 day treatment): including nuclei; solubilisation of fixed cell cytoplasm and nuclei [2]: very efficiently solubilises both the cytoplasm and nuclei
CCO [100% Ethanol, Ethanol]	No lysis	
CCCC[N+](CCCC)(CCCC)CCCC.[Cl-] [5M Tetrabutyl ammonium chloride, Tetrabutyl ammonium chloride]		Cell lysis effect (4 day treatment) [1]: No lysis
NC=O [100% Formamide, Formamide]	No lysis	

Source: US20210231538A1, “DISSOCIATION OF BIOLOGICAL SAMPLES” (priority 2018, published 2021)
